Where “and” joins values, the source holds several entries; their conditions need not be identical. Equal values may be shown once.
What was measured:
[1] = biological target: 5-hydroxytryptamine receptor 2B (Homo sapiens, UniProt P41595)
[2] = biological target: Norepinephrine transporter (Rattus norvegicus, UniProt Q9JIA2)
[3] = biological target: Sodium-dependent dopamine transporter (Rattus norvegicus, UniProt P23977)
[4] = biological target: Sodium-dependent serotonin transporter (Rattus norvegicus, UniProt P31652)
Sodium-dependent serotonin transporter, sequence (P31652 whole entry): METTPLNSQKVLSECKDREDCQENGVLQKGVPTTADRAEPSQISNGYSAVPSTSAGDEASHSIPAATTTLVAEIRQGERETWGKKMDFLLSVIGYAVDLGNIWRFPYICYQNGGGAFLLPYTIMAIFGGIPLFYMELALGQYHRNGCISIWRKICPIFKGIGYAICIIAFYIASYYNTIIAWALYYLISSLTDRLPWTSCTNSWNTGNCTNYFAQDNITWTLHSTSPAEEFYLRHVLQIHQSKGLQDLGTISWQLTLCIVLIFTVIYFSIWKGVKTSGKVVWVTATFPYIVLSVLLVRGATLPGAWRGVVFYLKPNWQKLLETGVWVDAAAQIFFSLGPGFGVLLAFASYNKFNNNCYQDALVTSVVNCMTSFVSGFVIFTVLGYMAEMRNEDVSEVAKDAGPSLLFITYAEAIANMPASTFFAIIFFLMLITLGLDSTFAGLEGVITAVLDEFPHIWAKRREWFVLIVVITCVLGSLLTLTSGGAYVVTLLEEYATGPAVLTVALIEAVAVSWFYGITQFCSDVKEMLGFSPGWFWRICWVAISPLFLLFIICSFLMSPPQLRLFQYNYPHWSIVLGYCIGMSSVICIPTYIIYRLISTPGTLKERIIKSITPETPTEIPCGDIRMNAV

[5] = biological target: Metabotropic glutamate receptor 8 (Rattus norvegicus, UniProt P70579)
[6] = biological target: Sodium-dependent noradrenaline transporter (Homo sapiens, UniProt P23975)
D(3) dopamine receptor = D(3) dopamine receptor (Homo sapiens, UniProt P35462)
[7] = biological target: Prostaglandin E2 receptor EP4 subtype (Homo sapiens, UniProt P35408)
[8] = biological target: Metabotropic glutamate receptor 4 (Rattus norvegicus, UniProt P31423)
D(4) dopamine receptor = D(4) dopamine receptor (Rattus norvegicus, UniProt P30729)
[9] = biological target: 5-hydroxytryptamine receptor 1B (Homo sapiens, UniProt P28222)
[10] = biological target: Metabotropic glutamate receptor 2 (Homo sapiens, UniProt Q14416)
[11] = biological target: 5-hydroxytryptamine receptor 7 (Homo sapiens, UniProt P34969)
5-hydroxytryptamine receptor 7, sequence (P34969 whole entry): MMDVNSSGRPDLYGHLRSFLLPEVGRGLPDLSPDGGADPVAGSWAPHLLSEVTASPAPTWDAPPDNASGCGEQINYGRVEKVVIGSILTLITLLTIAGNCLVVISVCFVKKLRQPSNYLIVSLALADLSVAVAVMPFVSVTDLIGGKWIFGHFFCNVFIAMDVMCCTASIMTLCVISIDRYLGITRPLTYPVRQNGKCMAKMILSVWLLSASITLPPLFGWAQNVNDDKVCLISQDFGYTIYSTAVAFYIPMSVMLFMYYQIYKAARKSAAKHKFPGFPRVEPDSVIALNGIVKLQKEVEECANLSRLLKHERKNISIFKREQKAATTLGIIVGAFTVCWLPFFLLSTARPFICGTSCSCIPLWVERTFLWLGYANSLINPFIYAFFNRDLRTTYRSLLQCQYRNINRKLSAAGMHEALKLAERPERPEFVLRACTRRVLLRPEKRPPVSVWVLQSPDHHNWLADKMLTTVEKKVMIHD

[12] = biological target: Metabotropic glutamate receptor 1 (Rattus norvegicus, UniProt P23385)
[13] = biological target: Muscarinic acetylcholine receptor M2 (Homo sapiens, UniProt P08172)
Muscarinic acetylcholine receptor M2, sequence (P08172 whole entry): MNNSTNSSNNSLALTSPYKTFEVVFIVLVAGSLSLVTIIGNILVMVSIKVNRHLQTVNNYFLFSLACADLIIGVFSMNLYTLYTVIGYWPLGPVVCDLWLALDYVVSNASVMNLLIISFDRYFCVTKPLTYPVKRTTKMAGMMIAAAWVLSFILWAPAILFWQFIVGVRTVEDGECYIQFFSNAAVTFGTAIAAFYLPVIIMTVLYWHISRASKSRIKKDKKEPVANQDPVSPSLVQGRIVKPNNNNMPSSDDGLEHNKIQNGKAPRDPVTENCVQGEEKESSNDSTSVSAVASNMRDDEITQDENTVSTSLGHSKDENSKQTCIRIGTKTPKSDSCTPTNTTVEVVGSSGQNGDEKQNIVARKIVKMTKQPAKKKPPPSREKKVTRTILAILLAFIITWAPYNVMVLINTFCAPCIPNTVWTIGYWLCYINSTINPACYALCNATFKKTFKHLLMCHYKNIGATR

Histamine H1 receptor = Histamine H1 receptor (Homo sapiens, UniProt P35367)
D(1A) dopamine receptor = D(1A) dopamine receptor (Homo sapiens, UniProt P21728)
D(1A) dopamine receptor, sequence (P21728 whole entry): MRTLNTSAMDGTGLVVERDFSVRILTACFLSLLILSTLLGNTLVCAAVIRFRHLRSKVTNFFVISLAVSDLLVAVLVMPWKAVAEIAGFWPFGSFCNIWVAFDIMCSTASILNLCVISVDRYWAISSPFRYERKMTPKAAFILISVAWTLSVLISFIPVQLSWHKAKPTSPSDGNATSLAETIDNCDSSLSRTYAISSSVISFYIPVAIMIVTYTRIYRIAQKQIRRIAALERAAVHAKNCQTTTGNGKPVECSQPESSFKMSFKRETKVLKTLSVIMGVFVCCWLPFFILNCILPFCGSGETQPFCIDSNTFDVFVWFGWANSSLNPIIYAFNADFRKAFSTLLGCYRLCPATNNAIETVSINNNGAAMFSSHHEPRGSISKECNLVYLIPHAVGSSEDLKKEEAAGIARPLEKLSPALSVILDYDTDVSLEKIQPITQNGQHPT

[14] = biological target: Alpha-2C adrenergic receptor (Homo sapiens, UniProt P18825)
[15] = biological target: 5-hydroxytryptamine receptor 1A (Homo sapiens, UniProt P08908)
5-hydroxytryptamine receptor 1A, sequence (P08908 whole entry): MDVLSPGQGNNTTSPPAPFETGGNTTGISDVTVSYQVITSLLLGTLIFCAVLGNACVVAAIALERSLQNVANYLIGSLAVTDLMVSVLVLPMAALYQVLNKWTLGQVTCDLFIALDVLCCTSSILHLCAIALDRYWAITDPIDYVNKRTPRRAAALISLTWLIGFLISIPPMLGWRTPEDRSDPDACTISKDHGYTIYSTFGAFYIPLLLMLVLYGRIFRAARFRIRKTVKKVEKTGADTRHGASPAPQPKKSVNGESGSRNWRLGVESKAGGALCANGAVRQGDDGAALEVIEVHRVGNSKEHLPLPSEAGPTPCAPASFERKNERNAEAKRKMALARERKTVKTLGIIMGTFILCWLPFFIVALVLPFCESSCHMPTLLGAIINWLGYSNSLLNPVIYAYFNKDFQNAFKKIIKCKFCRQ

[16] = biological target: Prostaglandin E2 receptor EP3 subtype (Homo sapiens, UniProt P43115)
D(1B) dopamine receptor = D(1B) dopamine receptor (Homo sapiens, UniProt P21918)
[17] = biological target: Neuronal acetylcholine receptor subunit alpha-3 (Homo sapiens, UniProt P32297)
[18] = biological target: Beta-1 adrenergic receptor (Rattus norvegicus, UniProt P18090)
[19] = biological target: Sodium-dependent dopamine transporter (Homo sapiens, UniProt Q01959)
[20] = biological target: Gamma-aminobutyric acid receptor subunit alpha-1 (Rattus norvegicus, UniProt P62813)
[21] = biological target: 5-hydroxytryptamine receptor 6 (Homo sapiens, UniProt P50406)
[22] = biological target: Alpha-1A adrenergic receptor (Homo sapiens, UniProt P35348)
Alpha-1A adrenergic receptor, sequence (P35348 whole entry): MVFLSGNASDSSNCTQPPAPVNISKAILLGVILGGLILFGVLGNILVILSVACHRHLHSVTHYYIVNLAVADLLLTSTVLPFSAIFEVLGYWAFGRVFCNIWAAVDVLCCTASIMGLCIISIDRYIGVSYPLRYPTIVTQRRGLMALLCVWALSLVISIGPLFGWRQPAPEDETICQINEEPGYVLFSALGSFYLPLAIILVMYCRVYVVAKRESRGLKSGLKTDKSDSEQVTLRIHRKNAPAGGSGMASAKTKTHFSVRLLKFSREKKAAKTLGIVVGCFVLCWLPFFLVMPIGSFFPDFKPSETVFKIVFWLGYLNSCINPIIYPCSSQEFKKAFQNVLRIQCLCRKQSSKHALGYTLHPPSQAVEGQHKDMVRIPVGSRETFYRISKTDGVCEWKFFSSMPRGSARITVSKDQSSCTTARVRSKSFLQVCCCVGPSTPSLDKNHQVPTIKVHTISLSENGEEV

[23] = biological target: 5-hydroxytryptamine receptor 2C (Rattus norvegicus, UniProt P08909)
5-hydroxytryptamine receptor 2C, sequence (P08909 whole entry): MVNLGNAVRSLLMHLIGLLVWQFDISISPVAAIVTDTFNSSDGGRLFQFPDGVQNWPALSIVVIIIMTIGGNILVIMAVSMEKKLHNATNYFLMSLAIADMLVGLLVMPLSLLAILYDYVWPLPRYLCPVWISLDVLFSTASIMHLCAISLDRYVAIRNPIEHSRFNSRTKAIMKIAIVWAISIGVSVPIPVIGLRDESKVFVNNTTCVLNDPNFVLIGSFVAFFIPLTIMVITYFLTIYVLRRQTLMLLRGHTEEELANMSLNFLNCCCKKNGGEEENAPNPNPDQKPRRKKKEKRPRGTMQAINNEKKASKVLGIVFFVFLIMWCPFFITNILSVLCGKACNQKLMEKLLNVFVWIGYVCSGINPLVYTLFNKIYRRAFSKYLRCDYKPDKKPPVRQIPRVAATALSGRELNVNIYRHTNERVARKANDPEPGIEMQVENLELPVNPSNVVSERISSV

D(2) dopamine receptor = D(2) dopamine receptor (Homo sapiens, UniProt P14416)
[24] = biological target: 5-hydroxytryptamine receptor 5A (Homo sapiens, UniProt P47898)
[25] = biological target: 5-hydroxytryptamine receptor 1D (Homo sapiens, UniProt P28221)
[26] = biological target: Muscarinic acetylcholine receptor M5 (Homo sapiens, UniProt P08912)
[27] = biological target: Acetylcholine receptor subunit alpha (Homo sapiens, UniProt P02708)
[28] = biological target: Glutamate receptor ionotropic, NMDA 1 (Rattus norvegicus, UniProt P35439)
[29] = biological target: Alpha-2A adrenergic receptor (Homo sapiens, UniProt P08913)
Alpha-2A adrenergic receptor, sequence (P08913 whole entry): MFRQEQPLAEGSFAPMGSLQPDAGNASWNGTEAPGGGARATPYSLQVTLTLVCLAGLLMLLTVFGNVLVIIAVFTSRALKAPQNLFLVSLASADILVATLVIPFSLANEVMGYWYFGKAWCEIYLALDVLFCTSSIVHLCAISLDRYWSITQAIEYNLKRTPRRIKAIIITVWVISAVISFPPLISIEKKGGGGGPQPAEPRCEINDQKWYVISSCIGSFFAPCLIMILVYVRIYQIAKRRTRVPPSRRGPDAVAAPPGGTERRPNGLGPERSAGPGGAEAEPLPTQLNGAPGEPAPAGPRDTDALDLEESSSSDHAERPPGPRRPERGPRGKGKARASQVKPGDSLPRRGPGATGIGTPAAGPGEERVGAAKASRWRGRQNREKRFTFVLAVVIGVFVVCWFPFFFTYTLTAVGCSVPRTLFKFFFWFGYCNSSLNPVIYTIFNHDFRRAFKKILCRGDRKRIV

[30] = biological target: Gamma-aminobutyric acid (GABA) B receptor 1 (Rattus norvegicus, UniProt Q6MFX8)
[31] = biological target: Muscarinic acetylcholine receptor M4 (Homo sapiens, UniProt P08173)
Cannabinoid receptor 1 = Cannabinoid receptor 1 (Rattus norvegicus, UniProt P20272)
[32] = biological target: Muscarinic acetylcholine receptor M1 (Homo sapiens, UniProt P11229)
[33] = biological target: Voltage-dependent L-type calcium channel subunit alpha-1C (Rattus norvegicus, UniProt P22002)
[34] = biological target: Beta-2 adrenergic receptor (Rattus norvegicus, UniProt P10608)

Sodium-dependent dopamine transporter (Rattus norvegicus, UniProt P23977), sequence (P23977 whole entry): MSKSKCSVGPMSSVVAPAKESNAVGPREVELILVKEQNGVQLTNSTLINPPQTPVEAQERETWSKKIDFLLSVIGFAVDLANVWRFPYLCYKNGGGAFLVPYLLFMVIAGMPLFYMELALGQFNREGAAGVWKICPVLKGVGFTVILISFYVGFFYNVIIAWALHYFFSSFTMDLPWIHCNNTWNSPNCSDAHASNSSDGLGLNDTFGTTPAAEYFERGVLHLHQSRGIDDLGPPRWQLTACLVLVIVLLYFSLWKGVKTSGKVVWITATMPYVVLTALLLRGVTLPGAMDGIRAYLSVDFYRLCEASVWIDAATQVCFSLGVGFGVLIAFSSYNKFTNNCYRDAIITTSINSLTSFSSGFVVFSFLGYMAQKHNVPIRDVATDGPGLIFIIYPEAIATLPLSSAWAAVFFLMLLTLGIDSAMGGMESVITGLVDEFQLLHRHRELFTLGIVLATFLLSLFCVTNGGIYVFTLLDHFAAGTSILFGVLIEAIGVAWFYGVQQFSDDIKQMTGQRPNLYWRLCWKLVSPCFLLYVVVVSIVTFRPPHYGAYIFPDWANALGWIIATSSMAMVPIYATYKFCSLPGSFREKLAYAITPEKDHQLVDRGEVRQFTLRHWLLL
5-hydroxytryptamine receptor 2B, sequence (P41595 whole entry): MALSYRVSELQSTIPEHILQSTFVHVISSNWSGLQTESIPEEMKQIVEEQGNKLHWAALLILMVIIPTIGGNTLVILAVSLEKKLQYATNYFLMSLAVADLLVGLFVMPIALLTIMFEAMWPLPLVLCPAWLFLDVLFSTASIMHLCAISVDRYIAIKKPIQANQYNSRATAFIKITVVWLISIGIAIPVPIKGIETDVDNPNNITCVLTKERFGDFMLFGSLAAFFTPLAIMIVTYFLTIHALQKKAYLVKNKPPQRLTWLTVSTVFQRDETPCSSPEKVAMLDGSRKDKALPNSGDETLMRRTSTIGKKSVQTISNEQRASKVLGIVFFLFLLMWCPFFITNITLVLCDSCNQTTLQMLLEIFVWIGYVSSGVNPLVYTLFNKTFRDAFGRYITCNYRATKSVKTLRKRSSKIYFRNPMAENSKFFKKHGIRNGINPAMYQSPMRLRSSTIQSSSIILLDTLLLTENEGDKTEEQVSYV

Compound: CCC(CO)NC(=O)C1C=C2c3cccc4[nH]cc(c34)CC2N(C)C1 (stereo unspecified) [NSC_8226]
- Ki [1]: 0.8 nM

Compound: CC(N)Cc1cccc(C(F)(F)F)c1 (stereo unspecified) [NSC_15897]
- Ki [2]: 170 nM
- Ki [3]: 1900 nM
- Ki [4]: 104 nM
- Ki [1]: 15 nM and 60 nM

Compound: NCCc1c[nH]c2ccc(O)cc12 [[3H]-5-HT]
- Ki [2]: > 10000 nM
- Ki [3]: > 10000 nM

Compound: CN1CC(C(=O)NC2(C)OC3(O)C4CCCN4C(=O)C(Cc4ccccc4)N3C2=O)CC2c3cccc4[nH]cc(c34)CC21 (stereo unspecified) [NSC_3066]
- Ki [1]: 15.2 nM and 30 nM

Compound: C[C@@H](N)Cc1ccc2c(c1)OCO2 [NSC_3046161]
- Ki [2]: 290 nM
- Ki [3]: 900 nM
- Ki [4]: 310 nM
- Ki [1]: 150 nM

Compound: CCCN1CC(CSC)CC2c3cccc4[nH]cc(c34)CC21 (stereo unspecified) [CAS_66104-22-1]
- Ki [1]: 14 nM and 53 nM

Compound: CCNC(C)Cc1cccc(C(F)(F)F)c1 (stereo unspecified) [NSC_3337]
- Ki [3]: > 10000 nM

Compound: CC(N)Cc1ccc2c(c1)OCO2 (stereo unspecified)
- Ki [2]: 108 nM
- Ki [3]: 190 nM
- Ki [4]: 160 nM
- Ki [1]: 100 nM and 190 nM

Compound: CN[C@@H](C)Cc1ccc2c(c1)OCO2 [DL-(3,4-Methylenedioxy)methamphetamine]
- Ki [5]: > 10000 nM
- Ki [6]: > 10000 nM
- Ki (D(3) dopamine receptor): > 10000 nM
- Ki [7]: > 10000 nM
- Ki [2]: 110 nM
- Ki [8]: > 10000 nM
- Ki (D(4) dopamine receptor): > 10000 nM
- Ki [9]: > 10000 nM
- Ki [10]: > 10000 nM
- Ki [11]: > 10000 nM
- Ki [12]: > 10000 nM
- Ki [13]: > 10000 nM
- Ki (Histamine H1 receptor): 2140 nM
- Ki (D(1A) dopamine receptor): > 10000 nM
- Ki [14]: 1120 nM
- Ki [15]: > 10000 nM
- Ki [16]: > 10000 nM
- Ki (D(1B) dopamine receptor): > 10000 nM
- Ki [17]: > 10000 nM
- Ki [18]: > 10000 nM
- Ki [19]: > 10000 nM
- Ki [20]: > 10000 nM
- Ki [21]: > 10000 nM
- Ki [22]: > 10000 nM
- Ki [23]: > 10000 nM
- Ki (D(2) dopamine receptor): > 10000 nM
- Ki [24]: > 10000 nM
- Ki [25]: > 10000 nM
- Ki [26]: 6340 nM
- Ki [3]: 278 nM
- Ki [27]: > 10000 nM
- Ki [28]: > 10000 nM
- Ki [4]: 72 nM
- Ki [29]: 2530 nM
- Ki [30]: > 10000 nM
- Ki [1]: 500 nM and 2000 nM
- Ki [31]: 8240 nM
- Ki (Cannabinoid receptor 1): > 10000 nM
- Ki [32]: > 10000 nM
- Ki [33]: 1200 nM
- Ki [34]: > 10000 nM

Compound: CN[C@H](C)Cc1ccc2c(c1)OCO2 [NSC_126235]
- Ki [2]: 136 nM
- Ki [3]: 142 nM
- Ki [4]: 74 nM
- Ki [1]: 6000 nM

Compound: CN[C@@H](C)Cc1ccc2c(c1)OCO2 [MDMA, R(-)]
- Ki [2]: 560 nM
- Ki [3]: 3700 nM
- Ki [4]: 340 nM
- Ki [1]: 900 nM

Compound: C[C@H](N)Cc1ccc2c(c1)OCO2 [NSC_3050061]
- Ki [2]: 50 nM
- Ki [3]: 98 nM
- Ki [4]: 100 nM
- Ki [1]: 100 nM
